Measured values from article PMC12691611, “Aromatic residue Trp146 mediates dynamic interplay between type IVa pili and exopolysaccharide in social motility of Myxococcus xanthus” (mBio, 2025).
Entries after “also recorded” stand apart in the source; their conditions may differ.

Key:
[1] = target: T1, PilACt (truncated PilA, residues 32–208) (Myxococcus xanthus, UniProt Q59589); assay: Surface plasmon resonance (SPR, Biacore T200), carbohydrates over immobilized PilACt; assay type: binding; conditions: for Kd: KD (SPR, PilACt)
T1 construct: a truncated variant (PilACt) spanning residues 32–208; His tag; made in house; host or cells: E. coli BL21 (DE3)
T1 sequence (Q59589 44-220): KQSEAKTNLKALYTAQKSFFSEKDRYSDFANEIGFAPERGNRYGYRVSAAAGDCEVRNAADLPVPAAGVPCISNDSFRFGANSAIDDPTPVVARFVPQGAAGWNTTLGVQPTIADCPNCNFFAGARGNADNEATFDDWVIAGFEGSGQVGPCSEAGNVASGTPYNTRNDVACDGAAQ
From the text: We therefore employed surface plasmon resonance (SPR) on a Biacore system to quantitatively evaluate EPS-PilA binding ([48]), using immobilized PilACt as the ligand. […] Due to the insoluble nature of I-EPS and the risk of clogging the microfluidic channels, it was excluded from further SPR analyses.
(§1) ITC power compensation analyses ([50]) confirmed negligible enthalpy changes during titrations, ruling out nonspecific binding events (Fig. S3B and S4B). […] Given the presence of ManNAc in M. xanthus EPS, we further analyzed its deacetylated derivative, mannosamine (ManN).
The binding affinity of carbohydrates to PilACt and its mutants was determined by SPR measurements at 25°C using Biacore T200 (Cytiva, USA) in PBS buffer. The purified PilACt or its mutants (10 µg/mL in 10 mM sodium acetate, pH 4.5) were immobilized on the CM5 chips (Cytiva, USA) via amine coupling. Unreacted sites were blocked with 1.0 M ethanolamine-HCl (pH 8.5). Flow path 1 or path 3 was used as an activated blank control for subtraction. In all interaction experiments, analytes were injected at a flow rate of 30 µL/min for 180 s, with gradient concentrations programmed from low to high. After injection, dissociation was allowed to occur with the buffer flow for 300 s to facilitate chip regeneration. The resulting curves were corrected and fitted to the steady-state model using Biacore evaluation software (version 3.0, Cytiva, USA) to determine the dissociation constant (KD) values.

PilACt = target: T2, PilACt (Myxococcus xanthus, UniProt Q59589); assay: Isothermal titration calorimetry (ITC), carbohydrates titrated into PilACt; assay type: binding
T2 construct: a truncated variant (PilACt) spanning residues 32–208; His tag; made in house; host or cells: E. coli BL21 (DE3)
T2 sequence (Q59589 44-220): as above
Experimental: as §1
The calorimetric data for the binding of PilACt and its mutants to carbohydrates were measured at 25°C using a MicroCal PEAQ-ITC system (Malvern Instruments, United Kingdom). The carbohydrates, PilACt, and its mutants were dissolved in the PBS buffer. A 300 µL aliquot of protein solution was placed in the sample cell, followed by 19 sequential 2 µL injections of carbohydrates from a syringe stock solution into the sample cell. The injection interval was 150 s, and the agitation speed was set at 750 rpm. A control titration, in which carbohydrates were injected into PBS buffer under the same conditions, was performed to measure the heat of mixing and dilutions, which was then subtracted from the titration results involving the protein. Raw data were imported into MicroCal PEAQ-ITC analysis software (Version 1.1.01262) and corrected by subtracting the equivalent dilution heats of control titration. Integration of the area under each, along with deduction of the heat of dilution, yielded a thermogram of the molecular interaction between carbohydrates and PilACt or its mutants.

PilACt-W146A = target: T3, PilACt-W146A (Myxococcus xanthus, UniProt Q59589, W146A); assay: SPR, carbohydrates over immobilized PilACt-W146A; assay type: binding; conditions: 25°C, PBS
T3 construct: a truncated variant (PilACt) spanning residues 32–208; His tag; made in house; host or cells: E. coli BL21 (DE3)
T3 sequence (Q59589 44-220 W146A): as the sequence (Q59589 44-220) above, with W103A counted along it
From the text: (§2) To functionally validate the role of W146, a W146A substitution mutant (PilA-W146A) was generated through AlphaFold2-based structural modeling of PilA (Fig. 4A). Structural alignment confirmed the mutant retained a tertiary structure indistinguishable from wild-type PilA (WT PilA; Fig. 4B), indicating the W146A substitution caused no global structural perturbations. […] However, the mutation induced localized instability, manifested by premature GlcN dissociation (4 ns) and excessive ligand RMSD fluctuations (>6 nm; Fig. 4C and D; Movie S4). […] To quantify binding effects, a single-residue PilACt variant (PilACt-W146A) was analyzed for EPS/GlcN affinity. […] To assess broader aromatic residue contributions, four additional PilA aromatic residues (Y69, W181, F164, and F186) were individually substituted with alanine. The PilACt-F164A mutant underwent intracellular degradation, likely due to structural instability, precluding heterologous expression.
The binding affinity of carbohydrates to PilACt and its mutants was determined by SPR measurements at 25°C using Biacore T200 (Cytiva, USA) in PBS buffer. The purified PilACt or its mutants (10 µg/mL in 10 mM sodium acetate, pH 4.5) were immobilized on the CM5 chips (Cytiva, USA) via amine coupling. Unreacted sites were blocked with 1.0 M ethanolamine-HCl (pH 8.5). Flow path 1 or path 3 was used as an activated blank control for subtraction. […]

PilACt-Y69A = target: T4, PilACt-Y69A (Myxococcus xanthus, UniProt Q59589, Y69A); assay: SPR, carbohydrates over immobilized PilACt-Y69A; assay type: binding
T4 construct: a truncated variant (PilACt) spanning residues 32–208; His tag; made in house; host or cells: E. coli BL21 (DE3)
T4 sequence (Q59589 44-220 Y69A): as the sequence (Q59589 44-220) above, with Y26A counted along it
From the text: as §2
(§3) The binding affinity of carbohydrates to PilACt and its mutants was determined by SPR measurements at 25°C using Biacore T200 (Cytiva, USA) in PBS buffer. […]
(§4) Fig S11. […] The binding affinity of single-residue variants PilACt-Y69A, PilACt-W181A, and PilACt-F186A to S-EPS (A) and GlcN (B) was evaluated by SPR analysis. Representative sensorgram and calculated KD values are shown. […]

PilACt-W181A = target: T5, PilACt-W181A (Myxococcus xanthus, UniProt Q59589, W181A); assay: SPR, carbohydrates over immobilized PilACt-W181A; assay type: binding
T5 construct: a truncated variant (PilACt) spanning residues 32–208; His tag; made in house; host or cells: E. coli BL21 (DE3)
T5 sequence (Q59589 44-220 W181A): as the sequence (Q59589 44-220) above, with W138A counted along it
From the text: as §2, §3, §4

PilACt-F186A = target: T6, PilACt-F186A (Myxococcus xanthus, UniProt Q59589, F186A); assay: SPR, carbohydrates over immobilized PilACt-F186A; assay type: binding
T6 construct: a truncated variant (PilACt) spanning residues 32–208; His tag; made in house; host or cells: E. coli (BL21 (DE3) is named only for the other PilACt variants)
T6 sequence (Q59589 44-220 F186A): as the sequence (Q59589 44-220) above, with F143A counted along it
From the text: as §2, §3, §4

[2] = Zeta potential measurement; assay type: physicochemical
Experimental: GlcN and PilACt were diluted in PBS buffer, and the solutions were adjusted to a suitable pH (6, 7.6, and 9) using either HCl or NaOH. The zeta (ζ) potential of GlcN (0.5 mg/mL) and PilACt (1 mg/mL) solutions was measured using UV-grade cuvettes with a Zetasizer NanoZS90 (Malvern Instruments, United Kingdom). For each measurement, 1 mL of the sample was injected into a folded capillary cell. All experiments were conducted in triplicate.

M. xanthus DK1622 cells = test system: M. xanthus DK1622 cells; parameters: method as in PMID 12704238; conditions: DK1622 cells ref 15; cited from earlier work
[3] = amine group of GlcN; no reference given; cited from earlier work

Compound | Kd ([1]; pH 9) [µM] | Kd ([1]; steady-state fit, 25°C, PBS buffer, pH 7.6) [µM] | Kd (PilACt) [µM] | stoichiometry n (ITC) (PilACt; 25°C, PBS, pH 7.6) | binding to PilACt-W146A by SPR (PilACt-W146A) | binding affinity relative to WT PilACt (SPR) (PilACt-Y69A) | binding affinity relative to WT PilACt (SPR) (PilACt-W181A) | binding affinity relative to WT PilACt (SPR) (PilACt-F186A) | zeta potential ([2]; pH 6, PBS) | zeta potential ([2]; pH 7.6, PBS) [mV] | piliation phenotype (surface pili) (M. xanthus DK1622 cells) | pKa [3] | binding to PilACt by SPR ([1]; tested concentrations 31.25–1,000 µM) | binding to PilACt by ITC (PilACt; 25°C, PBS)
N[C@H]1C(O)O[C@H](CO)[C@@H](O)[C@@H]1O (stereo partly drawn) [GlcN, glucosamine] | 87 | 203 | 300 | 1.47 | undetectable; also recorded: No binding | indistinguishable from WT | indistinguishable from WT | indistinguishable from WT | +2.43 mV | 1.09 | hyperpiliation | ~ 7.58 | – | –
CC(=O)N[C@@H]1[C@@H](O)[C@H](O)[C@@H](CO)O[C@H]1O [GlcNAc, N-acetyl-glucosamine] | – | – | – | – | – | – | – | – | – | – | hyperpiliation | – | undetectable | undetectable
